Laboratory results published in patent US20240197891A1, “PHARMACEUTICAL COMPOSITIONS COMPRISING POH DERIVATIVES” (UNIVERSITY OF SOUTHERN CALIFORNIA, priority 2021, published 2024).

What was measured:
[1] = test system: TMZ resistant (U251TR) U251 cells; experiment: Colony forming assay, TMZ resistant U251TR cells; assay type: cell-based, human
Method: Colony forming assays were carried out after cells were treated with TMZ alone, POH alone, and the TMZ-POH conjugate. […] Cancer Lett. 2011 Mar. 28; 302(2):100-8.

[2] = test system: USC-04 glioma cancer stem cells; experiment: MTT cytotoxicity assay, USC-04 glioma cancer stem cells; assay type: cell-based; conditions: USC-04; increasing concentrations (TMZ 0-400 uM; POH 0-2 mM)
Excerpt: (§1) Cancer Lett. 2011 Mar. 28; 302(2):100-8.

[3] = test system: USC-02 glioma cancer stem cells; experiment: MTT cytotoxicity assay, USC-02 glioma cancer stem cells; assay type: cell-based; conditions: USC-02; increasing concentrations (TMZ 0-400 uM; POH 0-2 mM)
Excerpt: as §1

[4] = test system: IL-1β; experiment: Serum IL-1β following UV exposure; assay type: in vivo, mouse
Method: (§2) SKH-1 hairless mice were treated with 10 mg/kg POH-LA conjugate freshly prepared daily. The POH-LA conjugate was formulated in glycerol:ethanol (90:10) while the control animals received the glycerol:ethanol vehicle only or the commercially available sunblock (Well & Good Sun Protection Wipes SPF 15). Additional test groups were treated with POH formulated in the glycerol:ethanol vehicle or linoleic acid formulated in the glycerol:ethanol vehicle. 50 μL of each formulation was placed on a area 1 cm^2 area that was exposed to the UV light. The mice were treated with their respective formulations after exposure to the UV light. In FIG. 22A, the mouse was treated with sunblock. In FIG. 22B, the mouse was treated with POH. In FIG. 22C, the mouse was treated with linoleic acid. In FIG. 22D, the mouse was treated with POH-LA conjugate. In FIG. […]:ethanol vehicle only. The POH-LA conjugate, POH or linoleic acid solutions were gently spread on the skin surface and allowed to air dry. The sunblock mouse was gently wiped on the exposure area with the sunblock towelette. This exposure and treatment went on for a maximum of 10 weeks. Throughout the experimental period the animals were photographed and weighed. At the end of the experimental period the mice were photographed and euthanized, followed by skin and blood collection. Blood was analyzed for markers of inflammation and DNA recovered from the exposed area of the skin and analyzed for markers of DNA damage.
(§3) Furthermore, blood samples were taken from each mouse 4 hours after the last cutaneous treatment. About 0.5 mL of blood was collected by cardiac puncture […]. Serum was aliquoted in Eppendorf tubes and store at −80° C. as preparation for cytokine analyses. […]
(§4) Mice were treated with 10 mg/kg POH-LA conjugate freshly prepared daily. […] Blood was analyzed for markers of inflammation and DNA recovered from the exposed area of the skin and analyzed for markers of DNA damage.

[5] = test system: TNF-α; experiment: Serum TNF-α following UV exposure; assay type: in vivo, mouse
Method: as §2, §3, §4

[6] = test system: skin inflammation induced by asTPA; experiment: asTPA-induced skin inflammation in mice; assay type: in vivo, mouse; conditions: topical, 3 days pretreatment plus 7 days asTPA, glycerol:ethanol (90:10)
Method: A first group of mice were pre-treated with a solution of 50 microliters (μL) of a conjugate of POH and linoleic acid (e.g., linoleoyl ester of POH) in a vehicle of a glycerol:ethanol (90:10) mixture. The POH-linoleic acid conjugate solution was applied on the hip flank of the mice for a period of 3 days. A second, control group of mice were treated solely with the glycerol:ethanol (90:10) vehicle.
After pre-treatment, skin inflammation was induced on the first and second groups of mice by daily cutaneous application of an acetonic solution of 12-0-Tetradecanoylphorbol-13-acetate (asTPA) (which is a known irritant) to the backs of the mice over seven days. The asTPA was not applied to a further control group. To facilitate application of the asTPA, mice were anaesthetized by inhalation of isofluorane. 100 microliters of asTPA (corresponding to 20 micrograms (μg) of TPA) was then applied onto the skin of the mice. Upon evaporation of the asTPA, the mice were returned to their cages.
During the seven-day period in which the first and second groups of mice were subjected to application of asTPA, the first group continued to receive treatment of the POH-linoleic acid conjugate and vehicle solution, and the second group continued to receive treatment of the vehicle. At the end of the seven-day period, the mice were photographed.

Structure (SMILES)	cytotoxicity (colony forming assay) [1]	cytotoxicity (MTT) [2]	cytotoxicity (MTT) [3]	IL-1β serum levels increase [4] [pg/mL]	TNF-α levels [5] [pg/mL]	skin appearance where asTPA was applied [6]
C=C(C)[C@@H]1CC=C(CO)CC1 [POH, perillyl alcohol]	demonstrated cytotoxicity	demonstrated cytotoxicity	demonstrated cytotoxicity	8.5 ± 3.0	103.2 ± 18.0	–
C=C(C)[C@@H]1CC=C(COC(=O)CCCCCCC/C=C\C/C=C\CCCCC)CC1 [POH-LA conjugate, Octadeca-9,12-dienoic acid 4-isopropenyl-cyclohex-1-enylmethyl ester]	–	–	–	6.4 ± 2.5	72.6 ± 22.8	no inflammation or flaking
